Assay results as given in US7067486B2, “Acetylcholinesterase-derived peptides and uses thereof” (priority 1999, dated 2006).
Marks after values point to notes of the source that are not given here. Where no end group is shown, it is not given here.

How the values were obtained:
CD34^+ cells [1] = test: Cell phenotyping of CD34+ liquid cultures by flow cytometry (CD34, CD33, CD15, CD41); format: cell-based, human
From the text: Cell Source: UCB was collected, following informed consent of the parents and with the approval of the Sourasky Medical Center Ethics Committee, as previously described [Grisaru et al. (1999a) Am. J. Obstet. Gynecol, 180, 1240–1243]. Following 1:1 (v/v) dilution in Iscove's modified Dulbecco medium (IMDM, Beit Haemek, Israel), mononuclear cells were separated using 3% gelatin (Difco, Detroit, Mich.) and Ficoll-Hypaque gradients (<1.077 g/ml; Pharmacia, Uppsala, Sweden) [Pick et al. (1998) Br. J. Haematol. 103, 639–50]. CD34^+ cells were enriched using CD34 immunoglobulin-coated magnetic beads (CD34 progenitor cell selection system, Dynal, Norway).CD34^+ cells analysis was performed by flow cytometry (Becton Dickinson Immunocytochemistry System Inc., San Jose, Calif.), using CD34-PE (Becton Dickinson Immunocytometry System, Inc.) and CD45-FITC (Dako, Glostrup, Denmark) monoclonal antibodies. […] Liquid Cultures: UCB CD34^+ cells were set for liquid cultures at a concentration of 10^5/mL in IMDM, containing 10% autologous plasma, 2 mM L-glutamine (Sigma Chemical Co., St Louis, Mo.), penicillin ([…]), streptomycin ([…]), amphotericin B (2×10^−5 M) (Sigma Chemical Co.), and heparin (20 IU/mL, Gibco, Grand Island, N.Y.), all in a fully humidified atmosphere at 37° C. and 5% CO2. The following elements were added where noted: • 1. […] Endothlial Growth factors: Epidermal growth factor (EGF 10 ng/ml, Sigma Chemical Co.), basic Fibroblast growth factor (bFGF 20 ng/ml, Sigma Chemical Co.) incubated in a serum free medium (SFM) for 48 hr. • 3. Stress mimicking conditions: Hydrocortisone sodium succinate (Abic Ltd., Netanya, Israel) at concentrations equivalent to normal, intermediate and stress serum cortisol levels (0.1, 0.6 and 1.2 μM, respectively (De Vroede et al., Arch. Des. […] Antisense oligonucleotides: 3′-terminal 2′-O-Methylated 15- and 20-mer oligodeoxynucleotides in the antisense (AS) orientation, targeted against the common sequence domain in human AChEmRNA and BuChE mRNA, as control, […], as detailed elsewhere [Grisaru et al. (1999b) Mol. Cell. Biol. 19, 788–95]. • 5. AChE C-terminal peptides: The following C-terminal peptides of the AChE synaptic (ASP, also denoted SEQ ID: No. 2) and readthrough (ARP, also denoted SEQ ID: No. 1) isoforms were synthesized using a 433A peptide synthesizer (PE Applied Biosystems, Inc., Norwalk, Conn.). • ASP: 1-[…]-40, also denoted as SEQ ID: No. 2. • ARP: 1-[…]-26, also denoted as SEQ ID: No. 1.
(§1) Culture Analyses: Twenty-four hr liquid cultures served for cytochemical staining, in situ hybridization, and cell proliferation assay by 5-bromo-2′-deoxy-Uridine (BrdU) incorporation [Grisaru et al. (1999b) id ibid.]. Twenty-eight day liquid cultures were sampled every 6–8 days for viable cell counting (using trypan blue dye exclusion), cell phenotyping (CD34^+, CD33^+ and CD41^+ quantification using flow cytometry, with CD34-PE, CD33-FITC (Immunotech/Coulter, Hialeah, Fla.), CD41-FITC (Immunoquality Products, Groningen, Netherlands) and CD45-FITC monoclonal antibodies), and growth of progenitor colony (granulocyte-macrophage and megakaryocytic), using previously described techniques (Pick et al. (1998) id ibid.). […] 11, 1049–57]. Nuclear staining w with 4′,6-diamidino-2- phenylindole [DAPI, see e.g., Peterson et al. (1999) Genetics 152, 427–439].

FVB/N adult mice = test: Biochemical and physiological male fertility correlates after ARP injection; format: in vivo, mouse
From the text: Culture Analyses: Twenty-four hr liquid cultures served for cytochemical staining, in situ hybridization, and cell proliferation assay by 5-bromo-2′-deoxy-Uridine (BrdU) incorporation [Grisaru et al. (1999b) id ibid.]. Twenty-eight day liquid cultures were sampled every 6–8 days for viable cell counting (using trypan blue dye exclusion), cell phenotyping (CD34^+, CD33^+ and CD41^+ quantification using flow cytometry, with CD34-PE, CD33-FITC (Immunotech/Coulter, Hialeah, Fla.), CD41-FITC (Immunoquality Products, Groningen, Netherlands) and CD45-FITC monoclonal antibodies), and growth of progenitor colony (granulocyte-macrophage and megakaryocytic), using previously described techniques (Pick et al. (1998) id ibid.). Cytochemical Staining: Staining of AChE activity was essentially as detailed elsewhere [Grisaru et al. (1999b) id ibid], on non-fixed liquid cultures following 300×g centrifugation on collagen-coated cover slips placed on the bottom of the culture well, in the presence of 10^−5 M iso-OMPA (ISO) or BW284C51 (BW), selective inhibitors of BuChE and AChE, respectively [see also Keymer et al.(1999) Eur. J. Neurosci. 11, 1049–57]. Nuclear staining w with 4′,6-diamidino-2- phenylindole [DAPI, see e.g., Peterson et al. (1999) Genetics 152, 427–439]. Animals and Tissue Collection: Male FVB/N mice (2–6 months old) were sacrificed 24 hr following 4 successive days of a forced swim session as detailed [Kaufer et al. (1998) id ibid.], or a single injection of ARP (34 nmol/kg weight), or phosphate buffer (PB) for control. ARP, a 26 amino acid residue peptide synthesized according to the C-terminal sequence of human AChE-R [Grisaru et al. (1999b) id ibid.] was HPLC purified and mass-spectrometry analysed for purity. Control naïve mice and hAChE-R transgenics were sacrificed with no prior treatment. Blood samples were allowed to clot 1 hr at room temperature and overnight at 4° C., followed by centrifugation and serum collection. Testes and seminal vesicles were excised and weighed, fixed in 4% paraformaldehyde or Bouin's fixative for histological staining or kept at −70° C. for protein extraction. Sperm cells were collected from one cauda epididymis shredded in 1 ml saline. Evaluation of Serum Corticosterone Levels: concentrations were determined by radioimmunoassay.
Epididymal sperm motility was assessed by visually determining percent motile sperm. Sperm concentration was measured using the Makler chamber (company, city, state).
Detection of the AChE core protein and/or its variant C-terminal peptides was performed on 7 μm thick paraffin embedded testis sections with either anti-ASP (C-16; Santa Cruz Biotechnology, Santa Cruz, Calif.) or anti-ARP polyclonal antibodies [Sternfeld et al. (2000) id ibid.]. PCNA was detected using a dedicated staining kit (Zymed Laboratories, San-Francisco, Calif.); nuclear staining and counterstaining was with DAPI and hematoxylin, respectively (Sigma, St. Louis Mo.).
To determine the in vivo capacity of ARP to affect different biochemical and physiological male fertility properties, the effect of injection of ARP or chronic expression of AChE-R (AChE-R transgenic mice) on different parameters was examined.

AChE = test: Cytochemical staining of AChE catalytic activity in CD34+ cells; format: cell-based, human; settings: 24 hr
From the text: as §1

[2] = test system: AChEmRNA transcripts (S, E, R); test: In situ hybridization of AChEmRNA transcripts in cultured CD34+ cells, confocal quantification; format: cell-based, human; settings: 24 hr
Protocol: In Situ Hybridization: In situ hybridization procedures, were performed on cultured cells and human fetal tissues, as detailed elsewhere [Grisaru et al. (1999b) id ibid; Kaufer et al. (1998) id ibid.]. Cultured cells were centrifuged at 300× g and fixed, using 4% paraformaldehyde, to collagen-coated cover slips placed on the bottom of the culture well. […] 5′-Biotinylated, 2′-O-methylated AChEcRNA probes complementary to 3′-alternative human ACHE exons were employed. Detection and quantification of the various AChEmRNA transcripts in fetal tissues were performed as previously described [Grisaru et al. (1999b) id ibid.]. Confocal microscopy scans of the culture-derived cells were obtained using a MRC-1024 Bio-Rad confocal microscope (Hemel Hempsted Herts., UK). A projection was built from each cell image and specific criteria were set for size and intensity of the Fagt Red fluorescence. […]
The assumption that hematopoietic ACHE gene expression is modulated under stress was tested in CD34^+ cells cultured for 24 hr with increasing doses of hydrocortisone. Treated cells were subjected to cytochemical staining for AChE activity as well as to high resolution in situ hybridization followed by confocal microscopic quantification of labeling density. […] Because each cRNA probe has its own characteristic hybridization affinity, each transcript was quantified separately. […]

CD34^+ cells [3] = test: Viable cell expansion in CD34+ liquid cultures (trypan blue exclusion); format: cell-based, human; settings: day 14; seeded at 50,000 cells/well; ARP 2 nM, cortisol 1.2 μM, ASP 2 nM, SCF 50 ng/ml, AS1 20 pM, PBAN 2 nM
From the text: Cell Source: UCB was collected, following informed consent of the parents and with the approval of the Sourasky Medical Center Ethics Committee, as previously described [Grisaru et al. (1999a) Am. J. Obstet. Gynecol, 180, 1240–1243]. Following 1:1 (v/v) dilution in Iscove's modified Dulbecco medium (IMDM, Beit Haemek, Israel), mononuclear cells were separated using 3% gelatin (Difco, Detroit, Mich.) and Ficoll-Hypaque gradients (<1.077 g/ml; Pharmacia, Uppsala, Sweden) [Pick et al. (1998) Br. J. Haematol. 103, 639–50]. CD34^+ cells were enriched using CD34 immunoglobulin-coated magnetic beads (CD34 progenitor cell selection system, Dynal, Norway).CD34^+ cells analysis was performed by flow cytometry (Becton Dickinson Immunocytochemistry System Inc., San Jose, Calif.), using CD34-PE (Becton Dickinson Immunocytometry System, Inc.) and CD45-FITC (Dako, Glostrup, Denmark) monoclonal antibodies. […] Liquid Cultures: UCB CD34^+ cells were set for liquid cultures at a concentration of 10^5/mL in IMDM, containing 10% autologous plasma, 2 mM L-glutamine (Sigma Chemical Co., St Louis, Mo.), penicillin ([…]), streptomycin ([…]), amphotericin B (2×10^−5 M) (Sigma Chemical Co.), and heparin (20 IU/mL, Gibco, Grand Island, N.Y.), all in a fully humidified atmosphere at 37° C. and 5% CO2. The following elements were added where noted: • 1. Hematopoietic growth factors: Interleukin 3 (IL3, 5 ng/mL, Immunex, Seattle, Wash.), interleukin 6 (IL6, 50 ng/mL, R&D Systems, Minneapolis, Minn.), TPO (1 ng/mL, R&D Systems), stem cell factor (SCF, 10 ng/mL, R&D Systems), FLT-3 ligand (FLT3, 50 ng/mL, R&D Systems), granulocyte-macrophage colony stimulating factor (GM-CSF, 50 ng/mL, Biogenesis Ltd, Bournemouth, UK) and combinations of the above, for 24 hr to 28 days (supplemented every 4 days). • 2. Endothlial Growth factors: Epidermal growth factor (EGF 10 ng/ml, Sigma Chemical Co.), basic Fibroblast growth factor (bFGF 20 ng/ml, Sigma Chemical Co.) incubated in a serum free medium (SFM) for 48 hr. • 3. […] AChE C-terminal peptides: The following C-terminal peptides of the AChE synaptic (ASP, also denoted SEQ ID: No. 2) and readthrough (ARP, also denoted SEQ ID: No. 1) isoforms were synthesized using a 433A peptide synthesizer (PE Applied Biosystems, Inc., Norwalk, Conn.). • ASP: 1-[…]-40, also denoted as SEQ ID: No. 2. • ARP: 1-[…]-26, also denoted as SEQ ID: No. 1. […]

[4] = 2-week primary cultures of CD34+ cells from 1 to 3 individuals, ± SEM where noted
[5] = 24-hr post i.p. injection of 34 nmol/Kg ARP, FVB/N adult male mice
[6] = 1.2 μM hydrocortisone (stress-associated level)
[7] = day 14, seeded at 50,000 cells/well, ARP 2 nM, cortisol 1.2 μM, ASP 2 nM, SCF 50 ng/ml, AS1 20 pM, PBAN 2 nM

**Q.** With TPO as the molecule, how does the “MK (CD41^+) fold expansion” value (CD34^+ cells [1]; [4]) read?
**A.** Its value is 3.93 ± 3.56 fold.

**Q.** And the “Myeloid (CD33^+) fold expansion” value (CD34^+ cells [1]; [4])?
**A.** The value was 3.51 ± 2.23 fold.

**Q.** Which results are given for GMQGPAGSGWEEGSGSPPGVTPLFSP [ARP]?
**A.** seminal gland wt. (FVB/N adult mice; [5]): 10.79 ± 1.08 mg/gr weight; sperm counts (FVB/N adult mice; [5]): 5.3 ± 1.2 cells/epididimis × 10^−6; sperm, motile (FVB/N adult mice; [5]): 5 ± 1.7 % of total sperm cells; sperm cell motility (FVB/N adult mice; ARP injected mice): significantly reduced motility; sperm counts compared with untreated FVB/N mice (FVB/N adult mice; ARP-injected mice): lower

**Q.** Which “enzyme activity of CD34+ cells” value (AChE; 0.60 μM hydrocortisone) does the source give for `C[C@]12CCC(=O)C=C1CC[C@@H]1[C@@H]2[C@@H](O)C[C@@]2(C)[C@H]1CC[C@]2(O)C(=O)COC(=O)CCC(=O)[O-].[Na+]` [hydrocortisone, Hydrocortisone sodium succinate, reference compound] here?
**A.** The value was “no change”.

**Q.** What about the “catalytic activity of the stem cell-associated enzyme” value (AChE; [6]) of the same molecule?
**A.** Its value is “intensified”.

**Q.** And the “CD33^+ (early myeloids)” value (CD34^+ cells [1]; [7])?
**A.** The value was 45.0 cells per culture × 10^−3.

**Q.** And the “CD33^+ and CD15^+ (total myeloids)” value (CD34^+ cells [1]; [7])?
**A.** Its value is 73.0 cells per culture × 10^−3.

**Q.** What about the “CD34^+ (early progenitors)” value (CD34^+ cells [1]; [7]) of the same molecule?
**A.** The value was 13.0 cells per culture × 10^−3.

**Q.** What about the “CD41^+ (megakaryocytes)” value (CD34^+ cells [1]; [7]) of the same molecule?
**A.** Its value is 10.1^b cells per culture × 10^−3.

**Q.** What about the “selective increase in "readthrough" AChE-R mRNA transcript” value ([2]; 0.60 μM hydrocortisone, above level at 0.10 μM, CD34+ cells) of the same molecule?
**A.** The value was 40%.

**Q.** What about the “labeling of all 3 AChEmRNA transcripts” value [2, 6] of the same molecule?
**A.** Its value is “enhanced”.

**Q.** What about the Total viable cells (CD34^+ cells [3]) of the same molecule?
**A.** The Total viable cells was 80.0 cells per culture × 10^−3.
